Patent publication US5665745A, “Heterocyclic compounds and their preparation and use” (Eli Lilly and Company, priority 1995, dated 1997)
pIC50: −log10 of the molar value. Read-outs that look alike come from different tables or passages of the source.

Experiments:
[1] = target: T1, muscarinic receptors (M1 -site, pirenzepine sensitive site) (Rattus norvegicus, UniProt P08482); test: inhibition of ^3 HPRZ (pirenzepine, [N-methyl-^3 H]) binding to rat cerebral cortex membranes; parameters: species or system rat (male Wistar
T1 construct: from tissue; host or cells: cerebral cortex membranes of male Wistar rats
T1 sequence (P08482 1-460): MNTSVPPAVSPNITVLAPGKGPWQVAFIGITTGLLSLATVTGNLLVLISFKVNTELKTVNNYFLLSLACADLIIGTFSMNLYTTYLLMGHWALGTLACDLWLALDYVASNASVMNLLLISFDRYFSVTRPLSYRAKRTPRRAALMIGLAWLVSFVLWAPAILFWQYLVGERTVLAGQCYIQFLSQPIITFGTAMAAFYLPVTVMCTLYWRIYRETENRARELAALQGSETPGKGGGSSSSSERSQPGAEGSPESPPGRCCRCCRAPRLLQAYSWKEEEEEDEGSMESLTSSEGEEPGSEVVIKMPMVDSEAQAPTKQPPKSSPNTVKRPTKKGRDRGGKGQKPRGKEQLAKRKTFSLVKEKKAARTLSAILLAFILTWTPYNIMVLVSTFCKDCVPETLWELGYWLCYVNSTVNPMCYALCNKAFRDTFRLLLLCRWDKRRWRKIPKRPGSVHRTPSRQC
Procedure: Furthermore the pharmacological properties of the compounds of the invention can also be illustrated by determining their capability to inhibit ^3 HPRZ (pirenzepine, [N-methyl-^3 H]) binding to rat cerebral cortex membranes.
Pirenzepine binds selectively to subtype of muscarinic receptors. Historically the type is named the M1 -site, whereas pirenzepine sensitive site would be more appropriate.
(§1) All preparations are performed at 0°-4° C. unless otherwise indicated. Fresh cortex (0.1-19) from male Wistar rats (150-200 g) is homogenized for 5-10 s in 10 mL 20 mM Hepes pH: 7.4, with an Ultra-Turrax homogenizer. The homogenizer is rinsed with 2×10 mL of buffer and the combined suspension centrifuged for 15 min. at 40,000×g. The pellet is washed three times with buffer. In each step the pellet is homogenized as before in 3×10 mL of buffer and centrifuged for 10 min. at 40,000×g.
The final pellet is homogenized in 20 mM Hepes pH: 7.4 (100 mL per g of original tissue) and used for binding assay. Aliquots of 0.5 mL is added 20 μl of test solution and 25 μL of ^3 HPRZ (1.0 nM, final conc.), mixed and incubated for 60 min. at 20° C. Non-specific binding is determined in triplicate using atropine (1 ,μg/mL, final conc.) as the test substance. After incubation samples are added 5 mL of ice-cold buffer and poured directly onto Whatman GF/C glass fiber filters under suction and immediately washed 2 times with 5 mL of ice-cold buffer. The amount of radioactivity on the filters are determined by conventional liquid scintillation counting. Specific binding is total binding minus non-specific binding.
Test substances are dissolved in 10 mL water, at a concentration of 0.22 mg/mL.
(§2) The test value will be given as IC50 (the concentration (nM) of the test substance which inhibits the specific binding of ^3 HPRZ by 50%). IC50 =(applied test substance concentration) x(Cx /Co -Cx)nM where Co is specific binding in control assays and Cx is the specific binding in the test assay. (The calculations assume normal mass-action kinetics).

[2] = target: muscarinic acetylcholine receptors; test: inhibition of specific binding of ^3 H-Oxotremorine-M (^3 H-Oxo); parameters: species or system rat (male Wistar; details: ^3 H-Oxotremorine 1.0 nM, rat cortex, 30 min. at 25° C.
Source text: The pharmacological properties of the compounds of the invention can be illustrated by determining their capability to inhibit the specific binding of ^3 H-Oxotremorine-M (^3 H-Oxo). Birdsdall N. J. M., Hulme E. C., and Burgen A. S. V. (1980). "The Character of Muscarinic Receptors in Different Regions of the Rat Brain" Proc. Roy. Soc. London (Series B) 207,1.
^3 H-Oxo labels muscarinic receptor in the CNS (with a preference for agonist domains of the receptors). Three different sites are labeled by ^3 H-Oxo. […] Using the present experimental conditions only the high and medium affinity sites are determined.
The inhibitory effects of compounds on ^3 H-oxo binding reflects the affinity for muscarinic acetylcholine receptors.
as §1, with “cortex (0.1-1 g)” for “cortex (0.1-19)”, “rats (150-250” for “rats (150-200”, “5-10 seconds” for “5-10 s”, “[…]” for “20 mM”, “with 10” for “with 2×10”, “in 2×10” for “in 3×10”
The final pellet is homogenized in 20 mM Hepes pH: 7.4 (100 mL per g of original tissue) and used for binding assay. Aliquots of 0.5 mL is added 25 μL of test solution and 25 μL of ^3 H-Oxotremorine (1.0 nM, final concentration) mixed and incubated for 30 min. at 25° C. Non-specific binding is determined in triplicate using arecoline ([…], final concentration) as the test substance. After incubation samples are added 5 mL of ice-cold buffer and poured directly onto Whatman GF/C glass fiber filters under suction and immediately washed 2 times with 5 mL of ice-cold buffer. The amount of radioactivity on the filters are determined by conventional liquid scintillation counting. Specific binding is total binding minus non specific binding.
as §2, with “Test substances are dissolved in 10 mL water (if necessary heated on a steam-bath for less than 5 min.) at a concentration of 2.2 mg/mL. […] The test” for “The test”, “of ^3 H-oxo by 50%).” for “of ^3 HPRZ by 50%).”

[3] = ^3 HPRZ 1.0 nM, rat cortex, 60 min. at 20° C., read-out: ^3 HPRZ IC50 (head from b208 on: Pir IC-50)

Structure (SMILES) | pIC50 [1] | pIC50 [2] | pIC50 [1, 3]
CCCCSc1nsnc1OC1CN2CCC1CC2 (racemic) [Compound 14, (±)-3-Butylthio-4-(1-azabicyclo[2.2.2]octyl-3-oxy)-1,2,5-thiadiazole] | 8.72 | 8.89 | –
CC#CCCOc1nsnc1O[C@@H]1CN2CCC[C@H]1C2 (relative stereo) [Compound 175, (±)-endo-3-(3-Pentynyloxy)-4-(1-azabicyclo[3.2.1]octyl-6-oxy)-1,2,5-thiadiazole] | – | 9.13 | 8.57
CCCCCCOc1nsnc1O[C@@H]1CN2CCC[C@H]1C2 (relative stereo) [Compound 136, (±)-endo-3-Hexyloxy-4-(1-azabicyclo[3.2.1]octyl-6-oxy)-1,2,5-thiadiazole] | – | 8.56 | 8.19
CCCSc1nsnc1OC1CN2CCC1CC2 (racemic) [Compound 13, (±)-3-Propylthio-4-(1-azabicyclo[2.2.2]octyl-3-oxy)-1,2,5-thiadiazole] | 8.43 | 8.85 | –
CCCCOc1nsnc1SCCN(C)C [Compound 36, 3-Butyloxy-4-(2-(dimethylamino)ethylthio)-1,2,5-thiadiazole] | – | 6.69 | 6.66
Fc1ccc(CSc2nsnc2OC2CN3CCC2CC3)cc1 (racemic) [Compound 42, (±)-3-(4-Fluorobenzylthio)-4-(1-azabicyclo[2.2.2]octyl-3-oxy)-1,2,5-thiadiazole] | 8.03 | 7.85 | –
CCCCSc1nsnc1O[C@H]1CN2CCC[C@@H]1C2 (relative stereo) [Compound 70, (±)3-(1-Butylthio)-4-[endo-6-(1-azabicyclo[3.2.1]octyloxy)]-1,2,5-thiadiazole] | – | 8.89 | 9.19
c1ccc2c(c1)Sc1ccccc1N2CCCSc1nsnc1OC1CN2CCC1CC2 (racemic) [Compound 151, (±)-3-(3-[N-phenothiazinyl]propylthio)-4-(1-azabicyclo[2.2.2]octyl-3-oxy)-1,2,5-thiadiazole] | – | 5.68 | 5.57
c1ccc(OCCSc2nsnc2O[C@@H]2CN3CCC[C@H]2C3)cc1 (relative stereo) [Compound 156, (±)-endo-3-(2-Phenoxyethylthio)-4-(1-azabicyclo[3.2.1]octyl-6-oxy)-1,2,5-thiadiazole] | – | 9.00 | 9.22
CCCCNc1nsnc1OC1CN2CCC1CC2 (racemic) [Compound 75, 3-(1-Butylamino)-4-[(+,-)-3-(azabicyclo[2.2.2]octyloxy)]-1,2,5-thiadiazole] | – | 7.19 | 6.89
c1ccc(CCSc2nsnc2OC2CN3CCC2CC3)cc1 (racemic) [Compound 43, (±)-3-(2-Phenylethylthio)-4-(1-azabicyclo[2.2.2]octyl-3-oxy)-1,2,5-thiadiazole] | 7.48 | 7.54 | –
C1CC(COc2nsnc2OC2CN3CCC2CC3)C1 (racemic) [Compound 124, (±)-3-(Cyclobutylmethoxy)-4-(1-azabicyclo[2.2.2]octyl-3-oxy)-1,2,5-thiadiazole] | 7.27 | 8.24 | –
CCCCOc1nsnc1OC1CNC1 [Compound 50, 3-Butyloxy-4-(3-azetidinyloxy)-1,2,5-thiadiazole] | – | 7.04 | 6.45
CCCCSc1nsnc1OC1CCN(C)CC1 [Compound 30, 3-Butylthio-4-(1-methyl-4-piperidyloxy)-1,2,5-thiadiazole] | – | 7.16 | 7.72
CCCCOc1nsnc1OC1CCNC1 (racemic) [Compound 27, (±)-3-Butyloxy-4-(3-pyrrolidinyloxy)-1,2,5-thiadiazole] | – | 6.91 | 6.43
CSCCOc1nsnc1OC1CN2CCC1CC2 (racemic) [Compound 115, (±)-3-(2-(Methylthio)ethoxy)-4-(1-azabicyclo[2.2.2]octyl-3-oxy)-1,2,5-thiadiazole] | – | 7.72 | 6.27
c1csc(CCOc2nsnc2O[C@@H]2CN3CCC[C@H]2C3)c1 (relative stereo) [Compound 189, (±)-endo-3-[2-(2-Thienyl)ethoxy]-4-(1-azabicyclo[3.2.1]octyl-6-oxy)-1,2,5-thiadiozole] | – | 8.77 | 8.42
CCCCOc1nsnc1O[C@H]1CN2CCC[C@@H]1C2 (relative stereo) [Compound 71, 3-(1-Butyloxy)-4-[endo-(+,-)-6-(1-azabicyclo[3.2.1]octyloxy)]-1,2,5-thiadiazole] | – | 8.96 | 8.94
O=C(CCSc1nsnc1OC1CN2CCC1CC2)c1ccc(F)cc1 (racemic) [Compound 150, (±)-3-(3-[4-Fluorophenyl]propan-3-onethio)-4-(1-azabicyclo[2,2.2]octyl-3-oxy)-1,2,5-thiadiazole] | 7.44 | 7.77 | –
c1csc(SCCSc2nsnc2OC2CN3CCC2CC3)c1 (racemic) [Compound 19, (±)-3-(2-(2-Thienylthio)ethylthio)-4-(1-azabicyclo-[2.2.2]octyl-3-oxy)-1,2,5-thiadiazole] | 8.12 | 9.44 | –
CCCCSc1nsnc1OC1CCCN2CCCC12 (mixture of isomers) [Compound 142, (±)-cis-3-Butylthio-4-(1-azabicyclo[4.3.0]nonyl-5-oxy)-1,2,5-thiadiazole] | – | 7.42 | 7.13
C#CCCOc1nsnc1O[C@@H]1CN2CCC[C@H]1C2 (relative stereo) [Compound 186, (±)-endo-3-(3-Butynyloxy)-4-(1-azabicyclo[3.2.1]octyl-6-oxy)-1,2,5-thiadiazole] | – | 9.23 | 8.55
c1csc(COc2nsnc2O[C@@H]2CN3CCC[C@H]2C3)c1 (relative stereo) [Compound 173, (±)-endo-3-(2-Thienylmethoxy)-4-(1-azabicyclo[3.2.1]octyl-6-oxy)-1,2,5-thiadiazole] | – | 9.00 | 8.85
C/C=C\COc1nsnc1OC1CN2CCC1CC2 (mixture of isomers) [Compound 110, (±)-3-(cis-2-butenyloxy)-4-(1-azabicyclo[2.2.2]octyl-3-oxy)-1,2,5-thiadiazole] | 7.30 | 7.88 | –
CCCCSc1nsnc1OCCN(C)C [Compound 144, 3-Butylthio-4-(2-dimethylaminoethoxy)-1,2,5-thiadiazole] | – | 7.92 | 8.05
